According to US7276603B2, “Benzofuranyl-and benzothienyl-piperazinyl quinolines and methods of their use” (Wyeth, priority 2003, dated 2007):

Legend:
human 5-HT1A receptors = biological target: T1, human 5-HT1A receptors (Homo sapiens, UniProt P08908); test: displacement of [3H] 8-OH-DPAT from the 5-HT1A serotonin receptor; type: binding; settings: CHO cells stably transfected with human 5-HT1A receptors
T1 construct: expressed in transfected cells; host or cells: CHO cells
T1 sequence (P08908 1-422): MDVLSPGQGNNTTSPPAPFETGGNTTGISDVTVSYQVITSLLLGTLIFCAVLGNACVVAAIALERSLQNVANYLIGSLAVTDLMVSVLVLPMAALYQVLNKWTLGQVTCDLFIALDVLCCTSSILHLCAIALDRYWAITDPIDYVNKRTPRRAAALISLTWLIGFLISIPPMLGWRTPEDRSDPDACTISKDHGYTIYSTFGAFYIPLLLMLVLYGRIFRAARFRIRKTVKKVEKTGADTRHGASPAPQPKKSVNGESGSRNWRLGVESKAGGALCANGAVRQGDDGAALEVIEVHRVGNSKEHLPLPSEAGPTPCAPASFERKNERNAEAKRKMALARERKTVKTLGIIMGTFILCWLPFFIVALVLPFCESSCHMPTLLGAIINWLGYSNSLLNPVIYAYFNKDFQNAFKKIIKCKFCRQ

5-HT transporter = 5-HT transporter (Rattus norvegicus, UniProt P31652); test: Rat Brain 3H-Paroxetine Binding Assay (RB 5HT Transporter); settings: rat frontal cortical membranes; 3H-paroxetine 0.1 nM, 60 min, 25° C.
Source text: Rat Brain ^3H-Paroxetine Binding Assay (RB 5HT Transporter):
This assay was used to determine a compound's affinity of the 5-HT transporter.
All reactions were terminated by the addition of ice cold Tris buffer followed by rapid filtration using a Tom Tech filtration device to separate bound from free ^3H-paroxetine.

Chain of 5-HT transporter (P31652 whole entry): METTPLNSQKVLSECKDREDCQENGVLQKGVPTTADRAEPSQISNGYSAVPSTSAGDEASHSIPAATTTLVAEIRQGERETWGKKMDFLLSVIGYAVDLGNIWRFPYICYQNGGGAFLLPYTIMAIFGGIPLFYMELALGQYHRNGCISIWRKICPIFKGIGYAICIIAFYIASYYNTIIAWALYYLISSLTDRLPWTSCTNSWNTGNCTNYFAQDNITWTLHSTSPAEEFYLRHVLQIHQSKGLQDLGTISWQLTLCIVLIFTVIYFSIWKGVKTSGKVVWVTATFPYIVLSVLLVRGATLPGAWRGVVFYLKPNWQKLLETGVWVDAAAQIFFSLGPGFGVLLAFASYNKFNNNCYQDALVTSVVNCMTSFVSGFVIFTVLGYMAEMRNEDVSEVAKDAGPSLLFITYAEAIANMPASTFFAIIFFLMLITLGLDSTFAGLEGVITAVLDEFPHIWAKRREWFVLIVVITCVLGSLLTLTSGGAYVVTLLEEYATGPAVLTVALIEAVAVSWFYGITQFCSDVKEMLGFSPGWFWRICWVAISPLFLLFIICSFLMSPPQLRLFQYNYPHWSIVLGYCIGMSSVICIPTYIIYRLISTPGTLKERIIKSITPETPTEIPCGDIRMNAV

Ki (human 5-HT1A receptors) [nM] | Ki (5-HT transporter) [nM] | melting point [°C] | SMILES
14.4 | 146 | 153 to 160 | COc1ccc2occ([C@H]3CC[C@@H](N4CCN(c5cc(F)cc6cccnc56)CC4)CC3)c2c1 [Compound 67, 6-fluoro-8-{4-[4-cis(5-methoxy-1-benzofuran-3-yl)cyclohexyl]piperazin-1-yl}quinoline]
0.22 | 121 | 152 to 155 | COc1ccc2occ([C@H]3CC[C@H](N4CCN(c5cc(F)cc6cccnc56)CC4)CC3)c2c1 [Compound 68, 6-fluoro-8-{4-[4-trans(5-methoxy-1-benzofuran-3-yl)cyclohexyl]piperazin-1-yl}quinoline]
16.3 | 106 | 91 to 93 | Fc1cc(N2CCN(C3CCC(c4cc5ccccc5o4)CC3)CC2)c2ncccc2c1 (stereo not drawn) [Compound 69, 8-[4-(4-benzofuran-2-yl-yclohexyl)-piperazin-1-yl]-6-fluoro-quinoline]
1550 | 47 | 184 to 186 | COc1cc(N2CCN([C@H]3CC[C@@H](c4cc5ccccc5s4)CC3)CC2)c2ncccc2c1 [Compound 70]

The next lines start with the molecule.

SMILES | Ki (human 5-HT1A receptors) [nM] | Ki (5-HT transporter) [nM] | melting point [°C]
COc1cccc2c1occ2[C@H]1CC[C@@H](N2CCN(c3cccc4cccnc34)CC2)CC1 [Compound 61, 8-{4-[4-cis(7-methoxy-1-benzofuran-3-yl)cyclohexyl]-1-piperazinyl}quinoline] | 41.4 | 27 | 66 to 67
COc1cccc2c1occ2[C@H]1CC[C@H](N2CCN(c3cccc4cccnc34)CC2)CC1 [Compound 62, 8-{4-[4-trans(7-methoxy-1-benzofuran-3-yl)cyclohexyl]-1-piperazinyl}quinoline] | 0.26 | 46 | 195 to 197
